Data set [1] has as its target T1, Metabotropic glutamate receptor 1 (Homo sapiens, UniProt Q13255). Nature of the data set: Positive allosteric modulation of human mGlu1 receptor assessed as increase in glutamate-induced calcium mobilization relative to glutamate. Format: functional. On the technique in general: Calcium assays in cells follow changes in intracellular calcium, usually with a dye or a luminescent sensor.
Target sequence in this assay (Q13255 19-1194 limits assumed): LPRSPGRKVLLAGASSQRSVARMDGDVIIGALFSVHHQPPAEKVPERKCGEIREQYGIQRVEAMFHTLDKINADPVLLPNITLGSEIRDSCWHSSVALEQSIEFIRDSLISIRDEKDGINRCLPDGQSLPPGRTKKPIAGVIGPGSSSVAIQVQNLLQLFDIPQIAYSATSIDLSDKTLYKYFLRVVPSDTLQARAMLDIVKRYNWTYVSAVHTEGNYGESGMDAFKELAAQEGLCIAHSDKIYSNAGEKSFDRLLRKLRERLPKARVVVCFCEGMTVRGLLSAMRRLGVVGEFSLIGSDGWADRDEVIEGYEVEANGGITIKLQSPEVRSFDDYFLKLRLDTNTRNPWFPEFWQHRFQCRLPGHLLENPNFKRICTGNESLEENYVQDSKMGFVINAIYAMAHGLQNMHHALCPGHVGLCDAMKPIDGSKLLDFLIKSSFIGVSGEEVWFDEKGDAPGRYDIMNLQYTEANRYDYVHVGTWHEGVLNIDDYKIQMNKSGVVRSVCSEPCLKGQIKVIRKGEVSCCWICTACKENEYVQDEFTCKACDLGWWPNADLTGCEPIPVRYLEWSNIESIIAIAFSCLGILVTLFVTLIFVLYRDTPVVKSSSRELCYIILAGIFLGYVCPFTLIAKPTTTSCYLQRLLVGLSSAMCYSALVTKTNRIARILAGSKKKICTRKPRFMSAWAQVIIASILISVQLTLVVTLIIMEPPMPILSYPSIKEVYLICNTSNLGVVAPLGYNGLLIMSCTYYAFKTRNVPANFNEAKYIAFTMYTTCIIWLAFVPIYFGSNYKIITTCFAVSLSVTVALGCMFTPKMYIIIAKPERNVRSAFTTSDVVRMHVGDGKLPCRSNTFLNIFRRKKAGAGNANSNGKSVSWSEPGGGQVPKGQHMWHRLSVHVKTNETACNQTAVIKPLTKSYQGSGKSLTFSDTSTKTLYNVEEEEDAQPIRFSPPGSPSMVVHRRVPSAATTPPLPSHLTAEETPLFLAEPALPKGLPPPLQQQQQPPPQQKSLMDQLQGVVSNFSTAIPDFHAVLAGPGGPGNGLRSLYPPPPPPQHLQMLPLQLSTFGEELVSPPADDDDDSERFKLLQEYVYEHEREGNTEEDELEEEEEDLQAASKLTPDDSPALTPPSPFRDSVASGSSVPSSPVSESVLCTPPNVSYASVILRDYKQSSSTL

The target of data set [2] is T1, Metabotropic glutamate receptor 1. The data set is described as follows: Positive allosteric modulation of human mGlu1 receptor assessed as increase in glutamate-induced calcium mobilization. Format: functional.
Data set [3] addresses Metabotropic glutamate receptor 1 (Rattus norvegicus, UniProt P23385). The data set is described as follows: Positive allosteric modulation of rat mGlu1 receptor assessed as increase in glutamate-induced calcium mobilization. Format: functional.
Data set [4] has as its target Metabotropic glutamate receptor 1 (Rattus norvegicus) (UniProt P23385). Nature of the data set: Positive allosteric modulation of rat mGlu1 receptor assessed as increase in glutamate-induced calcium mobilization relative to glutamate. The format is functional.
The subject of data set [5] is Brain. The data set is described as follows: Drug uptake in rat brain at 0.25 mg/kg, iv measured at the last time point. Format: ADME, organism-based. The note with it: in vivo.
Data set [6] concerns Plasma. The data set is described as follows: Plasma concentration in rat at 0.25 mg/kg, iv measured at the last time point. Format: ADME, organism-based. The note with it: in vivo.
Data set [7] has as its system Brain. The data set is described as follows: Fraction unbound in rat brain homogenate. The format is ADME, tissue-based.
Data set [8] deals with T1, Metabotropic glutamate receptor 1. The data set is described as follows: Positive allosteric modulation of human mGlu1 receptor assessed as glutamate efficacy at 10 uM (reference value: 95.2 +/- 3.5 %).
Target sequence in this assay (Q13255 19-1194 limits assumed): as above
Data set [9] shares this target. The data set is described as follows: Positive allosteric modulation of human mGlu1 receptor expressed in wild type T-Rex 293 cells assessed as increase in glutamate-induced calcium mobilization incubated for 2 mins before glutamate stimulation for 2.2 mins relative to glutamate. The format is functional, cell-based.
Target sequence in this assay (Q13255 19-1194 limits assumed): as above
For data set [10] the target is unchanged. The data set is described as follows: Positive allosteric modulation of human mGlu1 receptor expressed in wild type T-Rex 293 cells assessed as increase in glutamate-induced calcium mobilization incubated for 2 mins before glutamate stimulation for 2.2 mins. The format is functional, cell-based.
The target of a further data set is Cytochrome P450 2D6 (Homo sapiens, UniProt P10635). Nature of the data set: Inhibition of CYP2D6 (unknown origin). The format is ADME.
Cytochrome P450 2D6, sequence (P10635 whole entry): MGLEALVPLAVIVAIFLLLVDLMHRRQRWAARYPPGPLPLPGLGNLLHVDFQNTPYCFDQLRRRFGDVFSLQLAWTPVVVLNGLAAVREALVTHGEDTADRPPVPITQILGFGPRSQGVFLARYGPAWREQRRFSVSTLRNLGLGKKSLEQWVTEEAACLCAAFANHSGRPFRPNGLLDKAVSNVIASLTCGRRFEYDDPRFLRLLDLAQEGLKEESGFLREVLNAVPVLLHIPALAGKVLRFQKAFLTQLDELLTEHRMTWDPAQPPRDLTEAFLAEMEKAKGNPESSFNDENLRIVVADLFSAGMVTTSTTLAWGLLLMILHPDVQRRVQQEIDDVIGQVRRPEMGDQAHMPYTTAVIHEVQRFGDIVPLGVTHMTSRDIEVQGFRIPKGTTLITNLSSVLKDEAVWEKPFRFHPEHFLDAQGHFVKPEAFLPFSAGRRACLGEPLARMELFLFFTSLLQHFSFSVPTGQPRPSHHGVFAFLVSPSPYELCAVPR
The target of a further data set is Cytochrome P450 3A4 (Homo sapiens, UniProt P08684). The data set is described as follows: Inhibition of CYP3A4 (unknown origin). The format is ADME.
Cytochrome P450 3A4, sequence (P08684 whole entry): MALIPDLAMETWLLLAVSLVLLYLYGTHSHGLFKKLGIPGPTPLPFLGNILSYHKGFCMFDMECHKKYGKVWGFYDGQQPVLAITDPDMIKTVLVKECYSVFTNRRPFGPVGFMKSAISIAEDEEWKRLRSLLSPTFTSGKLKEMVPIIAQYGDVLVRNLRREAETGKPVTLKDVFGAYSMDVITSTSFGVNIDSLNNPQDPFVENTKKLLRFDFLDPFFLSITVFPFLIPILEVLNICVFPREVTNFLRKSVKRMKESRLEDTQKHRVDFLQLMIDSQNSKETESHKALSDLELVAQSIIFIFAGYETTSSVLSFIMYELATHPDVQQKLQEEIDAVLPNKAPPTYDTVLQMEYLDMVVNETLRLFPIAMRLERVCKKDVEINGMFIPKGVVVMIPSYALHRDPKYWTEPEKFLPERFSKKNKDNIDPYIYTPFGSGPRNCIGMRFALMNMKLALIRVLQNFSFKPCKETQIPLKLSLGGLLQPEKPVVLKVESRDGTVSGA
The nature of data set [11]: Ratio of drug level in brain to plasma in rat at 0.25 mg/kg, iv. The format is ADME, organism-based.
Data set [12] concerns the target T1, Metabotropic glutamate receptor 1. Nature of the data set: Positive allosteric modulation of human mGlu1 receptor assessed as potentiation of glutamate-induced effect at 10 uM relative to control.
Target sequence in this assay (Q13255 19-1194 limits assumed): as the sequence (Q13255 19-1194 limits assumed) above
Data set [13] deals with Plasma. Nature of the data set: Fraction unbound in rat plasma. Format: ADME, cell-free.
The target of a further data set is T2, Cytochrome P450 1A2 (Homo sapiens, UniProt P05177).
T2 sequence (P05177 whole entry): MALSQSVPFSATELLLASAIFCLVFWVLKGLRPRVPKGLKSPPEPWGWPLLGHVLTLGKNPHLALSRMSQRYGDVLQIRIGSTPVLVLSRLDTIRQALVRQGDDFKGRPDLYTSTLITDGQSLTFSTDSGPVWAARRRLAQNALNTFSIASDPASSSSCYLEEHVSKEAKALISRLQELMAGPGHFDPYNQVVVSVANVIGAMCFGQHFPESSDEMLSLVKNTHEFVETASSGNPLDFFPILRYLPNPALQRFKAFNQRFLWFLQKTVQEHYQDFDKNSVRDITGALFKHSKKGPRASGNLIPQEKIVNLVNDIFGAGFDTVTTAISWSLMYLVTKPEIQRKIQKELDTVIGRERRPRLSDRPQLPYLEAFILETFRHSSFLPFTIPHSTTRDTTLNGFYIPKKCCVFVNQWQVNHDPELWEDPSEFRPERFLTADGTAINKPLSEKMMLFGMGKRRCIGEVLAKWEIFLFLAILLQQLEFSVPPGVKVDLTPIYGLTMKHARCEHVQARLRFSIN
The data set is described as follows: Inhibition of CYP1A2 (unknown origin). The format is ADME.

A short description of data set [14]: Fraction unbound in human plasma. Format: ADME, cell-free.
Data set [15] is described as follows: Intrinsic clearance in human liver microsomes. Format: ADME. The note with it: read-out: CLH.
Another data set has as its target Cytochrome P450 2C9 (Homo sapiens, UniProt P11712). The data set is described as follows: Inhibition of CYP2C9 (unknown origin). The format is ADME.

Data on nine molecules can be found in ChEMBL document CHEMBL3797099, “Re-exploration of the mGlu₁ PAM Ro 07-11401 scaffold: Discovery of analogs with improved CNS penetration despite steep SAR” (Bioorg Med Chem Lett, 2016).

Metabotropic glutamate receptor 1 (Rattus norvegicus), sequence (P23385 19-1199 limits assumed): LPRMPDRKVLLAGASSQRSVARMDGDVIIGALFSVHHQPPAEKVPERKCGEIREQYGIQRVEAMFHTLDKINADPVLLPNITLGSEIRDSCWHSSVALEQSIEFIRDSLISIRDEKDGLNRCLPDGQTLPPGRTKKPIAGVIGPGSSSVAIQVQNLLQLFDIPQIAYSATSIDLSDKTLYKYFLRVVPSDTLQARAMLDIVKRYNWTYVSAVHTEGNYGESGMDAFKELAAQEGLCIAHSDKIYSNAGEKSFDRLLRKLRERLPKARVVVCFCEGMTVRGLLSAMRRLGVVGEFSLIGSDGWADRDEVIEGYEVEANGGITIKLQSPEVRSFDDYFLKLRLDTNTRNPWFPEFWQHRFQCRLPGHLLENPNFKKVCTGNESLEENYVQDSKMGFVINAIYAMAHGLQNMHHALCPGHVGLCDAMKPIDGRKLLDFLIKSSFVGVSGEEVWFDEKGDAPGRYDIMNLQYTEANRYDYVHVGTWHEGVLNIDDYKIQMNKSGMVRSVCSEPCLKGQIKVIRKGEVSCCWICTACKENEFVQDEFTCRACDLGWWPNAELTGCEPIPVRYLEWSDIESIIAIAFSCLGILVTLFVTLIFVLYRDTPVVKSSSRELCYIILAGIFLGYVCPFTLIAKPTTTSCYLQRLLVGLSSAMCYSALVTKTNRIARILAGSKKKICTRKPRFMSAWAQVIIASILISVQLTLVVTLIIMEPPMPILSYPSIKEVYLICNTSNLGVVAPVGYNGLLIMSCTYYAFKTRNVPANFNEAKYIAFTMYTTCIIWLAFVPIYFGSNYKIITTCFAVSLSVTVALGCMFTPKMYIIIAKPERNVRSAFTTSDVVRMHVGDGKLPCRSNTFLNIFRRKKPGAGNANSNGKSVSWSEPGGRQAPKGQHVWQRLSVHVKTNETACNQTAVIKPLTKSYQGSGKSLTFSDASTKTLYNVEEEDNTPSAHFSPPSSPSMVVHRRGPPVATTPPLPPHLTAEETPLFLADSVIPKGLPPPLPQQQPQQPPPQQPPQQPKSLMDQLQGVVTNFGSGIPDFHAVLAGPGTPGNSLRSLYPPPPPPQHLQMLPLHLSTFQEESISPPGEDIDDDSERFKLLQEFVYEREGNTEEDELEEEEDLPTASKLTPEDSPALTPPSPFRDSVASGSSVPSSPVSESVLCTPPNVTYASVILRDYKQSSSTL
Metabotropic glutamate receptor 1 (Rattus norvegicus, UniProt P23385), sequence (P23385 whole entry): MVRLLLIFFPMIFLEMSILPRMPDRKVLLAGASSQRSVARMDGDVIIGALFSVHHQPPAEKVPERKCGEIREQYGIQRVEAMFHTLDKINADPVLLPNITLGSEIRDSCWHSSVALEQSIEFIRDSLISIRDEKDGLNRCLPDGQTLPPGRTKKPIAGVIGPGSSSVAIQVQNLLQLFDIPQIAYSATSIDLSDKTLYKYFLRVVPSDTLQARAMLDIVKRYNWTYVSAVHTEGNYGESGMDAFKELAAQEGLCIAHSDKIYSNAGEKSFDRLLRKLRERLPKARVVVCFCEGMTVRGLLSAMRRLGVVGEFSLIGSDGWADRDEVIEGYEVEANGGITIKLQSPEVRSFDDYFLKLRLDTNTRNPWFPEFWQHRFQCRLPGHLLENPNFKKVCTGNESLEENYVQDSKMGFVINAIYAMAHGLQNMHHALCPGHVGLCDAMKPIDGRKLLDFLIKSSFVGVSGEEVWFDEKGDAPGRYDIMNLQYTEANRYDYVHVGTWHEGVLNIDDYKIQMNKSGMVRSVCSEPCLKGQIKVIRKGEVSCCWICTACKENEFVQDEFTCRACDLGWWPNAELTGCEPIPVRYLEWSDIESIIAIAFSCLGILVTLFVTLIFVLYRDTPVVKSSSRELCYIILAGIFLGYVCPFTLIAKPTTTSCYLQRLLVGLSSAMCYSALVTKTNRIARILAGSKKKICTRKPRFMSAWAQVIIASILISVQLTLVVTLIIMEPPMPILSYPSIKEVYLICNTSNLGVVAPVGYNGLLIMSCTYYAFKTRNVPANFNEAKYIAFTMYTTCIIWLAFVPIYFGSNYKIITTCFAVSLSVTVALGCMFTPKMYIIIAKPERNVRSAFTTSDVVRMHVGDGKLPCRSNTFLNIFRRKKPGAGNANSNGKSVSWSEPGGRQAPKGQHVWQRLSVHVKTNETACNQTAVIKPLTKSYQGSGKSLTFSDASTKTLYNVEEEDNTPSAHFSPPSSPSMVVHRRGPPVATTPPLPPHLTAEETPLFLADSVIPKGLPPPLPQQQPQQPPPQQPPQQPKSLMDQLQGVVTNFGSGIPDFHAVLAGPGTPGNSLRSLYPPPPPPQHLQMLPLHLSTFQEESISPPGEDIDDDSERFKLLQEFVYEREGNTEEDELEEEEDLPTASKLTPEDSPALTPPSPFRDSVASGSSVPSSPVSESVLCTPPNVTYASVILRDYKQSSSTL

As for `O=C(Nc1cncs1)C1c2ccccc2Oc2ccccc21`, the %max in data set [1] amounted to 54%. In addition, in data set [2], the negative logarithm of the EC50 (pEC50) is listed as less than 5. Besides, in data set [2] (read-out: EC50), the EC50 was greater than 10 µM.
On to `O=C(Nc1nccs1)C1c2ccccc2Oc2ccccc21`, for which the figures for the %max in data set [1] and in data set [4] were 75% and 111%, respectively. Moreover, the EC50 in [2] (read-out: EC50) was 1.4 µM; in data set [3] (read-out: EC50), 3.6 µM; in [3] (read-out: pEC50 (converted)) it was 3.72 µM.
In the case of `O=C(Nc1ccccn1)C1c2ccccc2Oc2ccccc21`, the %max in [1] is 58%. In addition, the EC50 in data set [2] (read-out: EC50) turned out to be 1.7 µM.
`O=C(Nc1nc(C(F)(F)F)co1)C1c2ccccc2Oc2ccccc21` displayed a Drug uptake with Brain [5] of 81 ng/g. The molecule also registered a Cp with Plasma [6] of 276 ng/mL. In the data set on Brain [7], this molecule displayed a Fu of 0.001. Further, the Efficacy in data set [8] stood at 109%. For the same molecule, the %max in [9] came out at 96%; in [4] it was 109%. For the same molecule, the EC50 in data set [10] stood at 0.246 µM; in data set [3] (read-out: EC50), 0.277 µM. Also, the IC50 against Cytochrome P450 2D6 and against Cytochrome P450 3A4 was greater than 30 µM throughout. Besides, in data set [11], the Kp amounted to 0.29. For the same molecule, in data set [12], the fold change (FC) is 6.9.
On to `O=C(Nc1nc2ccccc2s1)C1c2ccccc2Oc2ccccc21`, for which the %max in data set [1] is 96%. Moreover, the EC50 in data set [2] (read-out: EC50) was 4.8 µM.
With `Cc1nsc(NC(=O)C2c3ccccc3Oc3ccccc32)n1`, in data set [1], the %max was 101%. Further, the EC50 in [2] (read-out: EC50) was determined as 2.7 µM.
For `Cc1nc(NC(=O)C2c3ccccc3Oc3ccccc32)sc1C`, the %max in data set [1] is 68%. For the same molecule, in data set [2], the pEC50 is recorded as less than 5. The EC50 in data set [2] (read-out: EC50) was greater than 10 µM.
`N#Cc1csc(NC(=O)C2c3ccccc3Oc3ccccc32)n1`: the Fu worked out at 0.005 in the data set on Plasma [13], 0.017 in the data set with Brain [7] and 0.027 in data set [14]. Moreover, the IC50 against Cytochrome P450 1A2 was 2.9 µM; against Cytochrome P450 2C9, 2.9 µM; against Cytochrome P450 2D6 it was 10.3 µM; at Cytochrome P450 3A4 it was greater than 30 µM. For the same molecule, in the data set on Brain [5], the Drug uptake is 83.6 ng/g. In the data set on Plasma [6], this molecule returned a Cp of 80.2 ng/mL. Moreover, in [8], the Efficacy was 115%. In [15], the CLint scaled is 9.85 mL/min/kg. The %max in [1] is 110%; in [4] it was 124%. Also, the EC50 in data set [2] (read-out: EC50) is 0.71 µM; in data set [2] (read-out: pEC50 (converted)) it was 0.724 µM; in [3] (read-out: EC50) it was 1.8 µM. In addition, in [11], the Kp turned out to be 1.19. The fold change (FC) in data set [12] was determined as 5.4.
`CC(C)c1csc(NC(=O)C2c3ccccc3Oc3ccccc32)n1`: the Fu in the data set on Plasma [13] turned out to be 0.002; in the data set with Brain [7], 0.001; in [14], 0.001. Besides, the IC50 against Cytochrome P450 1A2 is 19 µM; at Cytochrome P450 2C9 it was 2.1 µM; against Cytochrome P450 2D6, 26.5 µM; against Cytochrome P450 3A4, greater than 30 µM. For the same molecule, in the data set with Brain [5], the Drug uptake came to 78.7 ng/g. Moreover, in the data set with Plasma [6], the Cp was found to be 77.8 ng/mL. Further, in [8], the Efficacy was 115%. The CLint scaled in data set [15] is 15.5 mL/min/kg. Besides, the %max in [1] is 89%; in data set [4], 111%. The figures for the EC50 in [2] (read-out: EC50) and in data set [3] (read-out: EC50) were 0.9 µM and 2.4 µM, respectively. Further, the Kp in data set [11] is 1.01. Moreover, the fold change (FC) in [12] came to 4.6.

One may read the pEC50 as the EC50 on a negative log10 scale, so that one unit is a factor of ten. Usually IC50 stands for the concentration that gives 50% inhibition. Low readings indicate greater potency in that assay, high ones weaker potency in that assay. One may read the Kp as tissue or fluid exposure divided by exposure in the circulation.
